Assay results: ChEMBL document CHEMBL1641484, “Efficient synthesis of trisaccharide saponins and their tumor cell killing effects through oncotic necrosis” (Bioorg Med Chem Lett, 2011)
Calls of active or inactive are those of the source. The calls are words filed in the database; no cut-off is given here.

Experiments:
K562 [1] = assay: Cytotoxicity against human K562 cells after 4 hrs by MTT assay; assay type: functional, cell-based; details: K562, 4 h
KB [2] = assay: Cytotoxicity against human KB cells after 4 hrs by MTT assay; assay type: functional, cell-based
MCF7 [3] = assay: Cytotoxicity against human MCF7 cells after 4 hrs by MTT assay; assay type: functional, cell-based; details: MCF7, 4 h
[4] = Cytotoxicity against human U87 cells after 4 hrs by MTT assay; assay type: functional, cell-based, U-87MG ATCC; details: U-87 MG
[5] = Cytotoxicity against human EVC304 cells after 4 hrs by MTT assay; assay type: cell-based; details: EVC304, 4 h
[6] = Cytotoxicity against human HL-7702 cells after 4 hrs by MTT assay; assay type: cell-based; details: L02, 4 h
H9c2 = assay: Cytotoxicity against rat H9c2 cells after 4 hrs by MTT assay; assay type: cell-based; details: H9c2, 4 h
K562 [7] = assay: Anticancer activity against human K562 cells assessed as membrane surface blebs at 5 uM after 30 to 60 mins by time-lapse microscopy; assay type: functional, cell-based
K562 [8] = assay: Anticancer activity against human K562 cells assessed as membrane surface blebs at 5 uM after 15 to 30 mins by time-lapse microscopy; assay type: functional, cell-based
K562 [9] = assay: Anticancer activity against human K562 cells assessed as loss of plasma membrane integrity at 5 uM after 10 mins by LDH release assay; assay type: functional, cell-based
K562 [10] = assay: Anticancer activity against human K562 cells assessed as loss of plasma membrane integrity at 5 uM after 180 mins by LDH release assay; assay type: functional, cell-based
MCF7 [11] = assay: Anticancer activity against human MCF7 cells assessed as loss of plasma membrane integrity at 5 uM after 10 mins by LDH release assay; assay type: functional, cell-based
MCF7 [12] = assay: Anticancer activity against human MCF7 cells assessed as loss of plasma membrane integrity at 5 uM after 180 mins by LDH release assay; assay type: functional, cell-based
K562 [13] = assay: Anticancer activity against human K562 cells assessed as loss of cell membrane integrity after 12 hrs by propidium iodide staining-based fluorescence microscopy; assay type: functional
KB [14] = assay: Anticancer activity against human KB cells assessed as loss of cell membrane integrity after 12 hrs by propidium iodide staining-based fluorescence microscopy; assay type: functional
MCF7 [15] = assay: Anticancer activity against human MCF7 cells assessed as loss of microtubules and actin microfilaments after 12 hrs by immunostaining; assay type: functional, cell-based

Compound | IC50 (K562 [1]) | IC50 (KB [2]) | IC50 (MCF7 [3]) | IC50 [4] | IC50 [5] | IC50 [6] | IC50 (H9c2) | Activity (K562 [7]) | Activity (K562 [8]) | Activity (K562 [9]) | Activity (K562 [10]) | Activity (MCF7 [11]) | Activity (MCF7 [12]) | Activity (K562 [13]) | Activity (KB [14]) | Activity (MCF7 [15])
CC(C)CCC[C@@H](C)[C@H]1CC[C@H]2[C@@H]3CC=C4C[C@@H](O[C@@H]5O[C@H](CO)[C@H](O)[C@H](O[C@@H]6OC[C@@H](O)[C@H](O)[C@H]6O)[C@H]5O[C@@H]5O[C@@H](C)[C@H](O)[C@@H](O)[C@H]5O)CC[C@]4(C)[C@H]3CC[C@]12C | 11.3 µM | 16.3 µM | 9.48 µM | 16.5 µM | > 20 µM | > 20 µM | > 20 µM |  |  |  |  |  |  |  |  | 
C[C@@H]1CC[C@@]2(OC1)O[C@H]1C[C@H]3[C@@H]4CC[C@H]5C[C@@H](O[C@@H]6O[C@H](CO)[C@H](O)[C@H](O[C@@H]7OC[C@@H](O)[C@H](O)[C@H]7O)[C@H]6O[C@@H]6O[C@@H](C)[C@H](O)[C@@H](O)[C@H]6O)CC[C@]5(C)[C@H]4CC[C@]3(C)[C@H]1[C@@H]2C | 3.77 µM | 1.32 µM | 2.61 µM | 3.12 µM | 1.03 µM | 6.92 µM | > 20 µM | Active | inactive | Active | Active | Active | Active | Active | Active | Active
C[C@@H]1CC[C@@]2(OC1)O[C@H]1C[C@H]3[C@@H]4CC=C5C[C@@H](O[C@@H]6O[C@H](CO)[C@H](O)[C@H](O[C@@H]7OC[C@@H](O)[C@H](O)[C@H]7O)[C@H]6O[C@@H]6O[C@@H](C)[C@H](O)[C@@H](O)[C@H]6O)CC[C@]5(C)[C@H]4CC[C@]3(C)[C@H]1[C@@H]2C [INDIOSIDE E] | 3.74 µM | 1.71 µM | 1.82 µM | 2.48 µM | 3.93 µM | 4.81 µM | > 20 µM |  |  |  |  |  |  |  |  | 
CC[C@H](CC[C@@H](C)[C@H]1CC[C@H]2[C@@H]3CC=C4C[C@@H](O[C@@H]5O[C@H](CO)[C@H](O)[C@H](O[C@@H]6OC[C@@H](O)[C@H](O)[C@H]6O)[C@H]5O[C@@H]5O[C@@H](C)[C@H](O)[C@@H](O)[C@H]5O)CC[C@]4(C)[C@H]3CC[C@]12C)C(C)C | > 40 µM | > 40 µM | > 40 µM | > 40 µM |  |  |  |  |  |  |  |  |  |  |  | 
C=C(C)[C@@H]1CC[C@]2(C)CC[C@]3(C)[C@H](CC[C@@H]4[C@@]5(C)CC[C@H](O[C@@H]6O[C@H](CO)[C@H](O)[C@H](O[C@@H]7OC[C@@H](O)[C@H](O)[C@H]7O)[C@H]6O[C@@H]6O[C@@H](C)[C@H](O)[C@@H](O)[C@H]6O)C(C)(C)[C@@H]5CC[C@]43C)[C@@H]12 | > 40 µM | > 40 µM | > 40 µM | > 40 µM |  |  |  |  |  |  |  |  |  |  |  | 
C[C@@H]1O[C@@H](O[C@H]2[C@H](O[C@H]3CC[C@]4(C)[C@H]5CC[C@]6(C)C(=CC[C@@]7(C)CCC(C)(C)C[C@H]76)[C@]5(C)CC[C@H]4C3(C)C)O[C@H](CO)[C@H](O)[C@@H]2O[C@@H]2OC[C@@H](O)[C@H](O)[C@H]2O)[C@H](O)[C@H](O)[C@H]1O | > 40 µM | > 40 µM | > 40 µM | > 40 µM |  |  |  |  |  |  |  |  |  |  |  | 
